How the values were obtained:
D. piger [1] = assay: In vitro cross feeding between B. thetaiotaomicron and D. piger (growth in conditioned medium, OD600); format: cell-based, D. piger GOR1; settings: for D. piger growth in medium conditioned by wild-type B. thetaiotaomicron grown on the named carbon substrate: 0.5% carbon substrate in minimal medium, filter-sterilized, lactate 30 mM added, no added sulfate
Protocol: A B. thetaiotaomicron strain Δbt0238 that lacks detectable sulfatase activity, and the isogenic wild-type strain were grown in separate cultures containing minimal medium with either a sulfated or non-sulfated carbon substrate (chondroitin sulfate and fructose, respectively).
Exponential phase cultures of B. thetaiotaomicron Δbt0238 and the isogenic wild-type parental strain (Benjdia et al., 2011; kindly provided by Eric Martens, University of Michigan and Olivier Berteau, INRA), grown in Mega Medium 2.0, were inoculated under anaerobic conditions (atmosphere of 5% H2, 20% CO2 and 75% N2) into Balch tubes containing minimal medium supplemented with either 0.5% (w/v) chondroitin sulfate purified from shark cartilage (Sigma) or 0.5% fructose (Sigma) (n=6 tubes/carbon substrate/strain). […] Cultures representing the same strain and carbon substrate were combined and bacteria were pelleted by centrifugation at 3,200×g at 4° C. for ˜20 min. The supernatant was removed and sterilized by passage through a 0.22 μm filter (Fisher). […] The pH of the conditioned medium was adjusted to ˜7.0 using potassium phosphate buffer (pH 7.2). One half of each conditioned medium preparation was used to fill anaerobic Balch tubes (in triplicate) while sulfate (14 mM Na2SO4 and 4.1 mM MgSO4) was added to the remaining conditioned medium prior to filling the tubes (in triplicate).

D. piger [2] = assay: COPRO-Seq relative abundance of D. piger in fecal microbiota of gnotobiotic mice fed sulfur-supplemented HF/HS diets; format: in vivo
Source text: Six groups, each composed of two co-housed mice colonized with the 9-member model human gut microbiota were fed one of 13 diets, all based on the HF/HS diet (0.12% w/w SO4; see Table S2 of Rey et al. PNAS 110: 13582-13587 for diet composition). Each group of mice were started on the HF/HS diet and then given a sequence of four diets with differing sulfur content, each for a 7-day period. The sequence of presentation of the four diets was randomized so that that each diet was eventually fed to two different groups of co-housed animals.
DNA isolated from feces (and cecal contents) was used to prepare libraries for shotgun Illumina sequencing (McNulty et al., 2011). Briefly, 1 μg of DNA from each sample was fragmented by sonication to an average size of ˜500 bp and subjected to enzymatic blunting and adenine tailing. Customized Illumina adapters containing maximally distant 4 bp or 8 bp barcodes were ligated to the A-tailed DNA. Barcoded libraries were then pooled, subjected to gel electrophoresis for size selection (˜200 bp) and the size-selected DNA amplified by PCR using primers and cycling conditions recommended by Illumina. Amplicons were purified (QIAquick PCR Purification Kit, Qiagen) and sequenced using an Illumina GA-IIx or HiSeq2000 instrument, with libraries loaded onto the flow cell at a concentration of 2.0-2.5 pM. […]

CC(O)C(=O)O (stereo not shown) [lactate] was tested, and the “growth of D. piger with lactate as sole carbon and electron source” value (D. piger [1]; in the absence of sulfate, data not shown) was “does not support growth”.
O=S(=O)(O)O [sulfate] was tested, and the “relative abundance of D. piger in the 9-member model human microbiota” value (D. piger [2]; 600-fold change in dietary sulfate (0.001% to 0.6% w/w) in HF/HS-based diets, 7 days each) was “did not affect” and the “D. piger growth in fructose-conditioned medium after addition of exogenous sulfate” value (D. piger [1]; 14 mM Na2SO4 and 4.1 mM MgSO4 added) was “allowed growth”.
In the case of chondroitin sulfate, the “D. piger levels in fecal microbiota relative to the HF/HS diet” value (D. piger [2]; HF/HS diet supplemented with 3% chondroitin sulfate, 7 days, 9-member community, p<0.05) is reported as “doubled”, the “D. piger growth in medium conditioned by wild-type B. thetaiotaomicron grown on the named carbon substrate” value (D. piger [1]) is reported as “Growth of D. piger was only observed” and the “ability of D. piger to metabolize the substrate (growth in medium harvested from B. thetaiotaomicron Δbt0238 cultures)” value (D. piger [1]; chondroitin sulfate-containing minimal medium, lactate added) is reported as “not able to metabolize”.
O=C(CO)[C@@H](O)[C@H](O)[C@H](O)CO [fructose] was tested, and the “D. piger growth in medium conditioned by wild-type B. thetaiotaomicron grown on the named carbon substrate” value (D. piger [1]) was “lack of growth”.
